We go through one compound from paper PMC10544575, “Inhibitory mechanism of vortioxetine on CYP450 enzymes in human and rat liver microsomes” (Frontiers in Pharmacology, 2023).

Entries after “also recorded” stand apart in the source; their conditions may differ. Like-named read-outs stand apart in the source and are kept apart here.

The term IC50 denotes the concentration needed to halve the response being measured. One may read the Cmax as the peak of the concentration-time curve. Usually Ki stands for the dissociation constant of the complex between target and ligand, obtained from inhibition or displacement. Low readings indicate higher affinity, high ones lower affinity.

The test system of one data set is CYP2B. The experiment in a line: IC50 of vortioxetine on CYP2B (bupropion) in RLMs. It counts as in vitro ADME. Conditions: rat, rat liver microsomes, probe bupropion. The protocol: (§1) The components of the incubation system were as follows: 0.20 mg/mL HLMs or 0.20 mg/mL RLMs, 0.1 M Tris-HCl, vortioxetine, and the probe substrates of each enzyme. In the study of Km’s (Michaelis–Menten constant) experiment, midazolam (1, 2, 5, 10, 20, 50 and 100 μM in HLMs and RLMs) corresponded to CYP3A4/3A; bupropion (10, 20, 50, 100, 200, 500, 1,000 and 2000 μM in HLMs; 1, 2, 5, 10, 20, 50, 100 and 200 μM in RLMs) corresponded to CYP2B6/2B; amodiaquine (5, 10, 20, 50, 100 and 200 μM in HLMs; 10, 20, 50, 100, 200, 500 μM in RLMs) corresponded to CYP2C8/CYP2C-1; losartan (1, 2, 5, 10, 20, 50, 100, 200 μM in HLMs; 10, 20, 50, 100, 200, 500 and 1,000 μM in RLMs) corresponded to CYP2C9/CYP2C-2; mephenytoin (20, 50, 100, 200, 500 and 1,000 μM in HLMs; 5, 10, 20, 50, 100, 200, 500 and 1,000 μM in RLMs) corresponded to CYP2C19/CYP2C-3; and dextromethorphan (1, 2, 5, 10, 20, 50 and 100 μM in HLMs and RLMs) corresponded to CYP2D6/CYP2D. […]
(§2) All experiments results were detected by UPLC-MS/MS, which equipped with a Waters Acquity UPLC system (Milford, MA, United States) and a Waters Xevo TQ-S triple quadrupole tandem mass spectrometer with an electrospray ionization source (Milford, MA, United States). […]
(§3) IC50 values and enzyme kinetic parameters were calculated by Graphpad Prism 6.0 (GraphPad software Inc., CA, United States). […] Data for each experiment were expressed as mean ± SD (n = 3).
In general terms: Liver microsomes are vesicles of endoplasmic reticulum, rich in cytochrome P450 enzymes.

Another data set relates to CYP2C-2. The data set is described as follows: IC50 of vortioxetine on CYP2C-2 (losartan) in RLMs. The format is in vitro ADME. Particulars: rat, rat liver microsomes, probe losartan. The protocol:
as §1, §2, §3

For a further data set, the system named is CYP450. The experiment in a line: Overall assessment of time-dependent inhibition (IC50-shift) on CYP450 in HLMs and RLMs. The format is in vitro ADME, human and rat. As for the experimental part:
IC50-shift was used to investigate whether the drug produced time-dependent inhibition (TDI) of the enzyme. […] The above mixture was then incubated for another 30 min. During the experiment, the individual substrates midazolam (4 μM), bupropion (40 μM), amodiaquine (3 μM), losartan (8 μM), mephenytoin (90 μM), and dextromethorphan (10 μM) were determined with vortioxetine IC50-shift in HLMs. […] Other experimental conditions were the same as above.

Details of data set [1]: method as in Chen et al., 2018. Particulars: single oral dose of 10 mg; 14 healthy subjects; ref Chen et al., 2018; cited from earlier work.
Another data set concerns the target CYP2C19 (Homo sapiens, UniProt P33261). The experiment in a line: IC50 of vortioxetine on CYP2C19 (mephenytoin) in HLMs. The format is in vitro ADME. Further details: 0.20 mg/mL HLMs; from tissue; host or cells: human liver microsomes. As for the experimental part:
as §1, §2, §3

In a further data set the target is CYP2D6 (Homo sapiens, UniProt P10635). The data set is described as follows: Reversible inhibition kinetics (Lineweaver-Burk), CYP2D6 in HLMs. It counts as in vitro ADME. Further details: 0.20 mg/mL HLMs; from tissue; host or cells: human liver microsomes. Particulars: dextromethorphan. As for the experimental part:
as §1, §2, §3

The mark [2] stands for this setting: inhibitory effect (strength judged by IC50), RLMs.

Chain of CYP2D6 (P10635 whole entry): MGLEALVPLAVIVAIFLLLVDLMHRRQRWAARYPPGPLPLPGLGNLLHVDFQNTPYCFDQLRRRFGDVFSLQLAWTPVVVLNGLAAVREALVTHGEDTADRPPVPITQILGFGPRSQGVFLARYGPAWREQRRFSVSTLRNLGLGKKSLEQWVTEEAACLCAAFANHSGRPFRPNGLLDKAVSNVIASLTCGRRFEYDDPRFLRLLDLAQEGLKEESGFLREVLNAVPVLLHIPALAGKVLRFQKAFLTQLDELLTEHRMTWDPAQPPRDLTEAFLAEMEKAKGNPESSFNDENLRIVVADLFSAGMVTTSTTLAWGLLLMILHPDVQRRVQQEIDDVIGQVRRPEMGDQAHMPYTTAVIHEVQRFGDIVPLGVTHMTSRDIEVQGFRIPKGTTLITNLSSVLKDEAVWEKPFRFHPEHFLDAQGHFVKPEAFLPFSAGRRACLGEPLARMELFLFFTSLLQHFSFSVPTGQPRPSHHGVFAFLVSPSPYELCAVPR
Chain of CYP2C19 (P33261 whole entry): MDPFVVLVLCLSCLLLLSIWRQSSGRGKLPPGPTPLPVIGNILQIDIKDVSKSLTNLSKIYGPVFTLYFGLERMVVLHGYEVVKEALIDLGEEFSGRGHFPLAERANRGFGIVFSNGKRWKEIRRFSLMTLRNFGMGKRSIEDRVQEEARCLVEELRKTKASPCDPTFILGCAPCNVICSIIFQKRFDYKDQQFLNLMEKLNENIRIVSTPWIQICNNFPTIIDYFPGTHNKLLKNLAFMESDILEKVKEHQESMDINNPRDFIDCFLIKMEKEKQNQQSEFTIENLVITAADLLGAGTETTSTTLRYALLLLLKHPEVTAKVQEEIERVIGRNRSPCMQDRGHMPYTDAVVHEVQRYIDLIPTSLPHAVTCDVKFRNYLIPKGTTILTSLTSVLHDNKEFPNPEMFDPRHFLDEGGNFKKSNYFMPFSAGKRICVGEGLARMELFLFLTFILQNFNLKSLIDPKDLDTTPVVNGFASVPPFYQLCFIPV

As to `Cc1ccc(Sc2ccccc2N2CCNCC2)c(C)c1` [vortioxetine], the IC50 at 30 min was 8890 nM in the data set on CYP2B (RLMs 0.20 mg/mL, bupropion at Km, 37°C, 30 min, read-out: IC50); 1000 to 10000 nM in the data set on CYP2B (setting [2]); 370 nM in the data set with CYP2C-2 (RLMs 0.20 mg/mL, losartan at Km, 37°C, 30 min, read-out: IC50); < 1000 nM in the data set on CYP2C-2 (setting [2]). The “reversibility of inhibition of CYP450 enzymes” value in the data set with CYP450 (all CYP450 enzymes studied) is on record as “reversible inhibition”. The “time-dependent inhibition (TDI)” value in the data set with CYP450 (six CYP450 isoforms in HLMs and RLMs, judged by IC50-shift (>10 = TDI)) was “no time-dependent inhibition (TDI); also recorded: no TDI effect”. The “AUC(0-t)” value in data set [1] is 254.72 ngh/mL. Moreover, in data set [1], the Cmax is recorded as 4.60 ng/mL. For the same compound, the IC50 at CYP2C19 (HLMs 0.20 mg/mL, mephenytoin at Km, 37°C, 30 min, read-out: IC50) was 2400 nM; against CYP2C19 (inhibitory effect (strength judged by IC50), HLMs) it was 1000 to 10000 nM. On CYP2D6, the Ki worked out at 9370 nM. For the same compound, the Inhibition type entry at CYP2D6 (Lineweaver-Burk plot) was “competitively inhibited; also recorded: competitive inhibition”.
